In ChEMBL document CHEMBL1201862, “PubChem BioAssay data set” (2004) one finds IC50 data, which are given here for two compounds.

The structures appear in SMILES notation. Activity calls are given as the source filed them. No stated cut-off is given here; in the data, actives have a measured IC50 and inactives only a lower limit.

In this assay the target is Envelope glycoprotein gp160 (Human immunodeficiency virus 1, UniProt Q6QLK5). The assay is described as follows: inhibitors of HIV fusion peptide binding, primary screen, biochemical, uHTS, fluorescence dequenching (AID 1986).
Sequence of Envelope glycoprotein gp160 (Q6QLK5 whole entry, the tested form may be a part): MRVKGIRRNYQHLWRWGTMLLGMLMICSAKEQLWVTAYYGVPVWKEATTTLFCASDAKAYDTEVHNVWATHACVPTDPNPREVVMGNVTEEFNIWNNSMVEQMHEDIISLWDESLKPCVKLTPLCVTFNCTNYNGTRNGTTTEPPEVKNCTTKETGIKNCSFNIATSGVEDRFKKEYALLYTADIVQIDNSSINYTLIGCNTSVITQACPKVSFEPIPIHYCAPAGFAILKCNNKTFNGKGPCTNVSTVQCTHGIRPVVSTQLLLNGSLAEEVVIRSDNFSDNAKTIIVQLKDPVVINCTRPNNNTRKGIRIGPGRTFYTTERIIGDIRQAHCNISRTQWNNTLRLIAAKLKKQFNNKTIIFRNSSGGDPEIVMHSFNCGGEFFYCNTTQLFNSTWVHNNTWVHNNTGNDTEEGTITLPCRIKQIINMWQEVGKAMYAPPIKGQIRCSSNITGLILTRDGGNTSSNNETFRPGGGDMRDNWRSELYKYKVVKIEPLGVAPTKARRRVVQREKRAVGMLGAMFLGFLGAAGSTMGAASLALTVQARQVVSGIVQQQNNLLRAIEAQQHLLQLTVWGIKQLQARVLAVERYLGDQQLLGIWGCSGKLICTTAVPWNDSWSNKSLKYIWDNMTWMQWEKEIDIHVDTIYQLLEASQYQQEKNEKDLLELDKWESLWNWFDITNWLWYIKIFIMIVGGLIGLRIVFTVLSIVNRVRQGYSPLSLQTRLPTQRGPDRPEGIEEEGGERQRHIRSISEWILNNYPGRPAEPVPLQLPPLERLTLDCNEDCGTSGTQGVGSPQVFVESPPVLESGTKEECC

Usually IC50 stands for the concentration needed to halve the response being measured. In the case of `CCCOc1ccc(C2C(C(=O)c3cc4ccccc4o3)=C(O)C(=O)N2c2cc(C)on2)cc1` (configuration not stated), the 50% inhibitory concentration (IC50) is 16.5 µM (active).
The figure for `COc1ccc(/C=N/NC(=O)c2[nH]c3ccc(Br)cc3c2-c2ccccc2)c(C(=O)O)c1OC` is 19.4 µM (active).
